Source: ChEMBL document CHEMBL1135338, “Protease inhibitors: synthesis of matrix metalloproteinase and bacterial collagenase inhibitors incorporating 5-amino-2-mercapto-1,3,4-thiadiazole zinc binding functions” (Bioorg Med Chem Lett, 2002)
pKi: −log10 of the molar value.

How the values were obtained:
[1] = target: Matrix metalloproteinase-9 (Homo sapiens, UniProt P14780); experiment: Inhibition of human matrix metalloprotease-9
[2] = target: T1, 72 kDa type IV collagenase (Homo sapiens, UniProt P08253); experiment: Inhibition of human matrix metalloprotease-2
Interstitial collagenase = target: T2, Interstitial collagenase (Homo sapiens, UniProt P03956); experiment: Inhibition of human matrix metalloprotease-1
T2 sequence (P03956 whole entry): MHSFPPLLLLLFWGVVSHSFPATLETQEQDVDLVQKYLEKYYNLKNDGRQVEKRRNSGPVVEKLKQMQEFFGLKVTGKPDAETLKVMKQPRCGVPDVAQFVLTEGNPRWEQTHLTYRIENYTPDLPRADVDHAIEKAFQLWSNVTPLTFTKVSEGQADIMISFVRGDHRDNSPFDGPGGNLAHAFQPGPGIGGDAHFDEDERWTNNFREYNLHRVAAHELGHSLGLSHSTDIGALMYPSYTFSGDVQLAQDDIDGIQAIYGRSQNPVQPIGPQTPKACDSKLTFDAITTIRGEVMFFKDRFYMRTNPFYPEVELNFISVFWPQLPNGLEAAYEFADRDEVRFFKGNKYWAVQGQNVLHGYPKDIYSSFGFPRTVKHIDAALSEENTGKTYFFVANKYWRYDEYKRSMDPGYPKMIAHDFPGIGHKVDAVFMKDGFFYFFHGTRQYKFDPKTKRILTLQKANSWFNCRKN

Neutrophil collagenase = Neutrophil collagenase (Homo sapiens, UniProt P22894); experiment: Inhibition of human matrix metalloprotease-8
[3] = target: T1, 72 kDa type IV collagenase; experiment: Inhibition of human Matrix metalloprotease-2
Stromelysin-1 = Stromelysin-1 (Homo sapiens, UniProt P08254); experiment: Inhibition of human Matrix metalloprotease-3
Chain of Stromelysin-1 (P08254 whole entry): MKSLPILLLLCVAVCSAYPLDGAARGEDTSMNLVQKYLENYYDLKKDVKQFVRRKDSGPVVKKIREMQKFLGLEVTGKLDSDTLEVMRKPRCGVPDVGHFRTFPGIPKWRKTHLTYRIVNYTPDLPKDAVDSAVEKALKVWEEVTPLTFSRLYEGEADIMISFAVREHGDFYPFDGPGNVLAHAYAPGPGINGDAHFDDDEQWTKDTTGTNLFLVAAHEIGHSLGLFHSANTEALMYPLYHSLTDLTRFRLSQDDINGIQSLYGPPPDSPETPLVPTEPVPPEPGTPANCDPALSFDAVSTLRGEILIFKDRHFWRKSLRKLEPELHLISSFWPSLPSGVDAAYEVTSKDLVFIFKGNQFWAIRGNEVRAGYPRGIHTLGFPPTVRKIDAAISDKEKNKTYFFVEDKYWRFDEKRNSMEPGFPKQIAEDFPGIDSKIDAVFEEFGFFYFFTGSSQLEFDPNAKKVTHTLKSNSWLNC

T1 sequence (P08253 whole entry): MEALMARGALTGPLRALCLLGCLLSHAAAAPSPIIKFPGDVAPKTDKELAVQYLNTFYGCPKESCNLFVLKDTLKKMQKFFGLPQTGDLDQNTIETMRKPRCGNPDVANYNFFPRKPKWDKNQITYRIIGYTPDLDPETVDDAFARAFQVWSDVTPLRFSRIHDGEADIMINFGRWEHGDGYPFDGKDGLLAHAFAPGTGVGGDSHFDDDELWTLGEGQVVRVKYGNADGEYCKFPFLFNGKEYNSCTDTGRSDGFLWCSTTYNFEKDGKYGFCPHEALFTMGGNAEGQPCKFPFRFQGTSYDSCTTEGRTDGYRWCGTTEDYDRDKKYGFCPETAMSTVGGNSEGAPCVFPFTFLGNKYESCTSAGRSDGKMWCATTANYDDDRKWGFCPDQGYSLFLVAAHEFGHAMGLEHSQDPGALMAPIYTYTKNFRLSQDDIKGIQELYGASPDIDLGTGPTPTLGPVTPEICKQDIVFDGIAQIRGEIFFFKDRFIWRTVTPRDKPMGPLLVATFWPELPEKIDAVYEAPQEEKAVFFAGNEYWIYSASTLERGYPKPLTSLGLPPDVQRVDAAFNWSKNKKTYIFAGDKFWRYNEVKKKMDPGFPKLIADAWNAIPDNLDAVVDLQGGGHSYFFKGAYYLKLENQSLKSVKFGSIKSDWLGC
Chain of Matrix metalloproteinase-9 (P14780 whole entry): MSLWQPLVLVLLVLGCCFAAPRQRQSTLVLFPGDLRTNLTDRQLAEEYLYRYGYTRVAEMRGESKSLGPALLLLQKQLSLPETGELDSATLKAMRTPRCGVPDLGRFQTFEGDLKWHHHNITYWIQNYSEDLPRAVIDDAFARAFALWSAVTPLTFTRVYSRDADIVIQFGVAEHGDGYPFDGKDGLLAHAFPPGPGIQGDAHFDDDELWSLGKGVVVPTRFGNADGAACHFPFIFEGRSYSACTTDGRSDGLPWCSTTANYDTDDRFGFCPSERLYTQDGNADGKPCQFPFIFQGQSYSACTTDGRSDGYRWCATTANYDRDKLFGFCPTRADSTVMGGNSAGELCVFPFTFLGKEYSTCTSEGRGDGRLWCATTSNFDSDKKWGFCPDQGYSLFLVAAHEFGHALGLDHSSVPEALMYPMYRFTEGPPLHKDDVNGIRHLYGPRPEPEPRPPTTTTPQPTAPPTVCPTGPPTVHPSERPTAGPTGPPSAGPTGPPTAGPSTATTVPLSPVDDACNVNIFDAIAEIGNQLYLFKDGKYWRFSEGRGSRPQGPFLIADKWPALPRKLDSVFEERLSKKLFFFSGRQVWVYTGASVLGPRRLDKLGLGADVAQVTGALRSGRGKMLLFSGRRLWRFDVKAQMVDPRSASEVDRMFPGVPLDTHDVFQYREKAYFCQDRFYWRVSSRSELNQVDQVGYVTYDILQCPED
Chain of Neutrophil collagenase (P22894 whole entry): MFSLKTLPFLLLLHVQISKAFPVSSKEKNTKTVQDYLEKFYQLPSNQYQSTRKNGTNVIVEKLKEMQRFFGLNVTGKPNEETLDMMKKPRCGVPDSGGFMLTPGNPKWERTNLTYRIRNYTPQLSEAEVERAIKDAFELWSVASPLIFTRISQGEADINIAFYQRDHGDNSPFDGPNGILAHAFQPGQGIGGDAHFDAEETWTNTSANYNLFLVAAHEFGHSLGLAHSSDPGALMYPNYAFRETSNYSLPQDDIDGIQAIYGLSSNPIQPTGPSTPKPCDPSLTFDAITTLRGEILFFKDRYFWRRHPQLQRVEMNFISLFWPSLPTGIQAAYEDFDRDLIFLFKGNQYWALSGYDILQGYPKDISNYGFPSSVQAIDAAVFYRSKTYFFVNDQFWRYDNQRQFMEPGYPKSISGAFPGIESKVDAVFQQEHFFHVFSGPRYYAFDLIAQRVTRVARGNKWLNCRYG

SMILES | pKi [1] | pKi [2] | pKi (Interstitial collagenase) | pKi (Neutrophil collagenase) | pKi [3] | pKi (Stromelysin-1)
C[C@H](NC(=O)[C@H](Cc1ccccc1)NC(=O)NS(=O)(=O)c1ccccc1)C(=O)Nc1n[nH]c(=S)s1 | 5.40 | 5.30 | 4.72 |  |  | 
O=C(O)C(Cc1ccccc1)NS(=O)(=O)c1ccc(-c2ccccc2)cc1 (stereo not drawn) |  |  |  |  | 5.70 | 
C[C@H](NC(=O)[C@H](Cc1ccccc1)NS(=O)(=O)c1cccc2ccccc12)C(=O)Nc1n[nH]c(=S)s1 | 4.36 | 4.44 | 4.10 |  |  | 
O=C(O)[C@H](Cc1c[nH]c2ccccc12)NS(=O)(=O)c1ccc(N2CCC(c3ccccc3)CC2)cc1 |  |  |  |  |  | 7.72
C[C@H](NC(=O)[C@H](Cc1ccccc1)NS(=O)(=O)c1ccccc1)C(=O)Nc1n[nH]c(=S)s1 | 4.82 | 4.74 | 4.66 | 4.62 |  | 
CC(C)C(NS(=O)(=O)c1ccc(-c2ccccc2)cc1)C(=O)O (stereo not drawn) |  |  |  |  | 5.70 | 
CC(C)C(NS(=O)(=O)c1ccc(-c2ccc(Cl)cc2)cc1)C(=O)O (stereo not drawn) |  |  |  |  | 5.70 | 
C[C@H](NC(=O)[C@H](Cc1ccccc1)NS(=O)(=O)c1ccccc1[N+](=O)[O-])C(=O)Nc1n[nH]c(=S)s1 | 4.85 | 4.82 | 4.54 | 4.77 |  | 
C[C@H](NC(=O)[C@H](Cc1ccccc1)NS(=O)(=O)CC12CCC(CC1=O)C2(C)C)C(=O)Nc1n[nH]c(=S)s1 (stereo partly drawn) | 4.40 | 4.46 | 4.16 | 4.47 |  | 
O=C(O)C(Cc1ccccc1)NS(=O)(=O)c1ccc(-c2ccc(Cl)cc2)cc1 (stereo not drawn) |  |  |  |  | 5.70 | 
Cc1ccc(S(=O)(=O)NC(=O)N[C@@H](Cc2ccccc2)C(=O)N[C@@H](C)C(=O)Nc2n[nH]c(=S)s2)cc1 | 5.30 | 5.15 | 4.82 | 5.30 |  | 
C[C@H](NC(=O)[C@H](Cc1ccccc1)NC(=O)NS(=O)(=O)c1ccc(F)cc1)C(=O)Nc1n[nH]c(=S)s1 | 6.52 | 5.70 | 4.92 | 7.00 |  | 
C[C@H](NC(=O)[C@H](Cc1ccccc1)NS(=O)(=O)c1c(F)c(F)c(F)c(F)c1F)C(=O)Nc1n[nH]c(=S)s1 | 5.70 | 5.22 |  | 6.00 |  | 
Cc1ccccc1S(=O)(=O)NC(=O)N[C@@H](Cc1ccccc1)C(=O)N[C@@H](C)C(=O)Nc1n[nH]c(=S)s1 | 5.15 | 5.10 | 4.72 | 5.22 |  | 
C[C@H](NC(=O)[C@H](Cc1ccccc1)NS(=O)(=O)c1cccc([N+](=O)[O-])c1)C(=O)Nc1n[nH]c(=S)s1 | 4.74 | 4.92 | 4.74 | 4.89 |  | 
C[C@H](NC(=O)[C@H](Cc1ccccc1)NS(=O)(=O)c1ccc(Cl)cc1)C(=O)Nc1n[nH]c(=S)s1 | 4.82 | 4.80 | 4.70 |  |  | 
C[C@H](NC(=O)[C@H](Cc1ccccc1)NC(=O)NS(=O)(=O)c1ccc(Cl)cc1)C(=O)Nc1n[nH]c(=S)s1 | 6.40 | 5.40 | 5.00 | 6.70 |  | 
O=C(O)C(Cc1ccccc1)NS(=O)(=O)c1ccc(-c2ccc(Br)cc2)cc1 (stereo not drawn) |  |  |  |  | 5.70 | 

Second part, the compound after the results:

pKi [1] | pKi [2] | pKi (Interstitial collagenase) | pKi (Neutrophil collagenase) | pKi [3] | pKi (Stromelysin-1) | SMILES
4.74 | 4.77 | 4.68 |  |  |  | C[C@H](NC(=O)[C@H](Cc1ccccc1)NS(=O)(=O)c1ccc(I)cc1)C(=O)Nc1n[nH]c(=S)s1
4.54 | 4.62 | 4.48 | 4.60 |  |  | Cc1cc(C)c(S(=O)(=O)N[C@@H](Cc2ccccc2)C(=O)N[C@@H](C)C(=O)Nc2n[nH]c(=S)s2)c(C)c1
4.74 | 4.92 | 4.82 | 5.00 |  |  | C[C@H](NC(=O)[C@H](Cc1ccccc1)NS(=O)(=O)c1ccc([N+](=O)[O-])cc1)C(=O)Nc1n[nH]c(=S)s1
4.70 | 4.70 | 4.52 | 4.64 |  |  | Cc1ccc(S(=O)(=O)N[C@@H](Cc2ccccc2)C(=O)N[C@@H](C)C(=O)Nc2n[nH]c(=S)s2)cc1
4.30 | 4.40 | 4.06 | 4.32 |  |  | C[C@H](NC(=O)[C@H](Cc1ccccc1)NS(=O)(=O)c1cccc2c(N(C)C)cccc12)C(=O)Nc1n[nH]c(=S)s1
5.00 | 5.10 | 4.85 |  |  |  | CC(=O)Nc1ccc(S(=O)(=O)N[C@@H](Cc2ccccc2)C(=O)N[C@@H](C)C(=O)Nc2n[nH]c(=S)s2)cc1
5.00 | 4.89 | 4.85 |  |  |  | C[C@H](NC(=O)[C@H](Cc1ccccc1)NS(=O)(=O)c1cccs1)C(=O)Nc1n[nH]c(=S)s1
4.68 | 4.74 | 4.55 | 4.70 |  |  | COc1ccc(S(=O)(=O)N[C@@H](Cc2ccccc2)C(=O)N[C@@H](C)C(=O)Nc2n[nH]c(=S)s2)cc1
4.85 | 4.77 | 4.72 |  |  |  | C[C@H](NC(=O)[C@H](Cc1ccccc1)NS(=O)(=O)c1ccc(F)cc1)C(=O)Nc1n[nH]c(=S)s1
4.80 | 4.80 | 4.62 |  |  |  | C[C@H](NC(=O)[C@H](Cc1ccccc1)NS(=O)(=O)Cc1ccccc1)C(=O)Nc1n[nH]c(=S)s1
5.30 | 4.96 | 4.89 |  |  |  | C[C@H](NC(=O)[C@H](Cc1ccccc1)NS(=O)(=O)c1cccc(C(F)(F)F)c1)C(=O)Nc1n[nH]c(=S)s1
4.28 | 4.48 | 4.14 | 4.35 |  |  | C[C@H](NC(=O)[C@H](Cc1ccccc1)NS(=O)(=O)c1ccc2ccccc2c1)C(=O)Nc1n[nH]c(=S)s1
4.77 | 5.00 | 4.72 | 5.05 |  |  | C[C@H](NC(=O)[C@H](Cc1ccccc1)NS(=O)(=O)c1cc(Cl)ccc1Cl)C(=O)Nc1n[nH]c(=S)s1
4.68 | 4.82 | 4.62 |  |  |  | C[C@H](NC(=O)[C@H](Cc1ccccc1)NS(=O)(=O)c1ccc(Br)cc1)C(=O)Nc1n[nH]c(=S)s1
4.35 | 4.39 | 4.13 | 4.41 |  |  | C[C@H](NC(=O)[C@H](Cc1ccccc1)NS(=O)(=O)c1cccc2cccnc12)C(=O)Nc1n[nH]c(=S)s1
